Data as given in patent US20150010928A1, “MEANS AND METHODS FOR ASSESSING AN ENDOCRINE DISEASE OR DISORDER” (priority 2012, published 2015).
Counter-ions that a name gives are not always drawn. Marks after values point to notes of the source that are not given here.

Tested on: male rats
Test: Plasma metabolite profiling (GC-MS, LC-MS, SPE-LC-MS) in male rats dosed once daily over 28 days (OECD 407)
Assay type: in vivo, rat
Method: Each dose group in the studies consisted of five rats per sex. Additional groups of each 5 male and female animals served as controls. […] All animals of the animal population were kept under the same constant temperature (20-24±3° C.) and the same constant humidity (30-70%). The animals of the animal population were fed ad libitum. The food to be used was essentially free of chemical or microbial contaminants. Drinking water was also offered ad libitum. Accordingly, the water was free of chemical and microbial contaminants as laid down in the European Drinking Water Directive 98/83/EG. The illumination period was 12 hours light followed by 12 hours darkness (12 hours light, from 6:00 to 18:00, and 12 hours darkness, from 18:00 to 6:00). […] The test substances (compounds) in the Tables 1 to 17 below were dosed and administered as described in the Table 18.
In the morning of day 7, 14, and 28, blood was taken from the retroorbital venous plexus from fasted anaesthetized animals. From each animal, 1 ml of blood was collected with EDTA as anticoagulant. The samples were centrifuged for generation of plasma. All plasma samples were covered with a N2 atmosphere and then stored at −80° C. until analysis.
For mass spectrometry-based metabolite profiling analyses plasma samples were extracted and a polar and a non-polar (lipid) fraction was obtained. For GC-MS analysis, the non-polar fraction was treated with methanol under acidic conditions to yield the fatty acid methyl esters. Both fractions were further derivatised with O-methyl-hydroxyamine hydrochloride and pyridine to convert Oxogroups to O-methyloximes and subsequently with a silylating agent before analysis. In LC-MS analysis, both fractions were reconstituted in appropriate solvent mixtures. HPLC was performed by gradient elution on reversed phase separation columns. Mass spectrometric detection which allows target and high sensitivity MRM (Multiple Reaction Monitoring) profiling in parallel to a full screen analysis was applied as described in WO2003073464.
Steroids and their metabolites were measured by online SPE-LC-MS (Solid phase extraction-LC-MS).
Following comprehensive analytical validation steps, the data for each analyte were normalized against data from pool samples. These samples were run in parallel through the whole process to account for process variability. The significance of treatment group values specific for sex, treatmentduration and metabolite was determined by comparing means of the treated groups to the means of the respective untreated control groups using WELCH-test and quantified with treatment ratios versus control and p-values.
The identification of the most important biomarkers per toxicity pattern was done by a ranking of the analytes in the tables below. Therefore the metabolic changes in reference treatments of a given pattern (shown in the table) were compared with changes of the same metabolite in other unrelated treatments. […] The maximum absolute value of the respective TVALUE was taken to indicate the most important metabolite for the pattern.

## CNCCC(Oc1ccc(C(F)(F)F)cc1)c1ccccc1 (stereo not drawn) [Fluoxetine hydrochloride]
m7, high dose, Table 10a
  3-O-Methylsphingosine (d18:1): 1.33
  5-O-Methylsphingosine (d18:1): 1.43
  Cysteine: 1.81 *
  Lignoceric acid (C24:0): 1.33
  Nervonic acid (C24:cis[15]1): 1.37
  Oleic acid (C18:cis[9]1): 0.83
  Stearic acid (C18:0): 1.21
  alpha-Tocopherol: 1.37
  threo-Sphingosine (d18:1): 1.2
m7, high dose, Table 10b
  Oleic acid (C18:cis[9]1): 0.83^
  Phosphatidylcholine (C16:0, C16:0): 0.99^
  Thyroxine (T4): 0.42 *
  trans-4-Hydroxyproline: 0.87 *
m14, high dose, Table 10a
  3-O-Methylsphingosine (d18:1): 1.43^
  5-O-Methylsphingosine (d18:1): 1.67 *
  Cysteine: 2.03 *
  Oleic acid (C18:cis[9]1): 0.88^
  Stearic acid (C18:0): 1.2
  alpha-Tocopherol: 1.64 *
  threo-Sphingosine (d18:1): 1.45 *
m14, high dose, Table 10b
  Oleic acid (C18:cis[9]1): 0.88 *
  Thyroxine (T4): 0.59^
  trans-4-Hydroxyproline: 0.83 *
m28, high dose, Table 10a
  3-O-Methylsphingosine (d18:1): 2.23 *
  5-O-Methylsphingosine (d18:1): 2.39 *
  Lignoceric acid (C24:0): 1.79 *
  Nervonic acid (C24:cis[15]1): 1.57 *
  Oleic acid (C18:cis[9]1): 0.98^
  Stearic acid (C18:0): 1.42 *
  alpha-Tocopherol: 1.74 *
  threo-Sphingosine (d18:1): 2.2 *
m28, high dose, Table 10b
  Oleic acid (C18:cis[9]1): 0.98
  Phosphatidylcholine (C16:0, C16:0): 0.99
  Thyroxine (T4): 0.72
  trans-4-Hydroxyproline: 0.72 *
rat, in vivo
  Cysteine: 1.37 *
  Lignoceric acid (C24:0): 1.35^
  Nervonic acid (C24:cis[15]1): 1.68^
  Phosphatidylcholine (C16:0, C16:0): 1.03^
